Data from patent US11970511B2, “Tetrahydropyran-based thiodisaccharide mimics as Galectin-3 inhibitors” (BRISTOL-MYERS SQUIBB COMPANY, priority 2018, dated 2024).

The molecules below were run against His-tagged recombinant human Gal-3 (hGal-3) (Homo sapiens, UniProt P17931) (assay: Gal-3 HTRF assay: His-tagged hGal-3 binding to B-ASF, Anti-His terbium antibody / Streptavidin d2 detection). Settings: 15 nM hGal-3, 15 nM B-ASF, three replicates, room temperature.
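Also: compound preincubated 30 min with hGal-3, then 1 h with B-ASF, DMSO wells with B-ASF serving as positive control and those lacking B-ASF as negative control.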

His-tagged recombinant human Gal-3 (hGal-3), sequence (P17931 whole entry): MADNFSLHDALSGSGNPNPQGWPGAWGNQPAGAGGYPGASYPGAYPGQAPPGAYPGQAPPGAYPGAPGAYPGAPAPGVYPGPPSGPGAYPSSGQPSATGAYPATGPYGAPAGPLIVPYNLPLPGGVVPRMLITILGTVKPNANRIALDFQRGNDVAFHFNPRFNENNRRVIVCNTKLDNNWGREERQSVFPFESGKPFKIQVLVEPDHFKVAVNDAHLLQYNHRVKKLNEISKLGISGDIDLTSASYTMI

Row | IC50 | Structure (SMILES)
1 | 170 nM | CO[C@@H]1[C@@H](n2cc(-c3ccc4nccnc4c3)nn2)[C@@H](O)[C@@H](CO)O[C@H]1S[C@@H]1COC[C@H](n2cc(-c3ccccc3)nn2)[C@H]1O [Example A8, (2R,3R,4S,5R,6S)-6-(((3R,4R,5S)-4-hydroxy-5-(4-phenyl-1H-1,2,3-triazol-1-yl)tetrahydro-2H-pyran-3-yl)thio)-2-(hydroxymethyl)-5-methoxy-4-(4-(quinoxalin-6-yl)-1H-1,2,3-triazol-1-yl)tetrahydro-2H-pyran-3-ol]
2 | 1240 nM | CO[C@@H]1[C@@H](n2cc(-c3ccnnc3)nn2)[C@@H](O)[C@@H](CO)O[C@H]1S[C@@H]1COC[C@H](n2cc(-c3ccccc3)nn2)[C@H]1O [Example A9, (2R,3R,4S,5R,6S)-6-(((3R,4R,5S)-4-hydroxy-5-(4-phenyl-1H-1,2,3-triazol-1-yl)tetrahydro-2H-pyran-3-yl)thio)-2-(hydroxymethyl)-5-methoxy-4-(4-(pyridazin-4-yl)-1H-1,2,3-triazol-1-yl)tetrahydro-2H-pyran-3-ol]
3 | 330 nM | CO[C@@H]1[C@@H](n2cc(-c3ccc4ccccc4c3)nn2)[C@@H](O)[C@@H](CO)O[C@H]1S[C@@H]1COC[C@H](n2cc(-c3ccccc3)nn2)[C@H]1O [Example A10, (2R,3R,4S,5R,6S)-6-(((3R,4R,5S)-4-hydroxy-5-(4-phenyl-1H-1,2,3-triazol-1-yl)tetrahydro-2H-pyran-3-yl)thio)-2-(hydroxymethyl)-5-methoxy-4-(4-(naphthalen-2-yl)-1H-1,2,3-triazol-1-yl)tetrahydro-2H-pyran-3-ol]
4 | 1860 nM | COC(=O)C12CCC(c3cn(C4C(O)C(CO)OC(SC5COCC(n6cc(-c7ccccc7)nn6)C5O)C4OC)nn3)(CC1)CC2 [Example A11, methyl 4-(1-((2R,3R,4S,5R,6S)-3-hydroxy-6-(((3R,4R,5S)-4-hydroxy-5-(4-phenyl-1H)-1,2,3-triazol-1-yl)tetrahydro-2H-pyran-3-yl)thio)-2-(hydroxymethyl)-5-methoxytetrahydro-2H-pyran-4-yl)-1H-1,2,3-triazol-4-yl)bicyclo[2.2.2]octane-1-carboxylate]
5 | 1400 nM | CO[C@@H]1[C@@H](NC(=O)c2cc(F)c(F)c(F)c2)[C@@H](O)[C@@H](CO)O[C@H]1S[C@@H]1COC[C@H](n2cc(-c3ccccc3)nn2)[C@H]1O [Example A12, 3,4,5-trifluoro-N-((2R,3R,4S,5R,6S)-3-hydroxy-6-(((3R,4R,5S)-4-hydroxy-5-(4-phenyl-1H-1,2,3-triazol-1-yl)tetrahydro-2H-pyran-3-yl)thio)-2-(hydroxymethyl)-5-methoxytetrahydro-2H-pyran-4-yl)benzamide]
6 | 570 nM | COc1c(F)c(F)c(C(=O)N[C@H]2[C@@H](O)[C@@H](CO)O[C@@H](S[C@@H]3COC[C@H](n4cc(-c5ccccc5)nn4)[C@H]3O)[C@@H]2OC)c(F)c1F [Example A13, 2,3,5,6-tetrafluoro-N-((2R,3R,4S,5R,6S)-3-hydroxy-6-(((3R,4R,5S)-4-hydroxy-5-(4-phenyl-1H-1,2,3-triazol-1-yl)tetrahydro-2H-pyran-3-yl)thio)-2-(hydroxymethyl)-5-methoxytetrahydro-2H-pyran-4-yl)-4-methoxybenzamide]
7 | 67 nM | COC1C(SC2CNCC(n3cc(-c4cccc(F)c4)nn3)C2O)OC(CO)C(O)C1n1cc(-c2cc(F)c(F)c(F)c2)nn1 (stereo not shown) [Example B1]
8 | 37 nM | COC1C(SC2CN(C(C)=O)CC(n3cc(-c4cccc(F)c4)nn3)C2O)OC(CO)C(O)C1n1cc(-c2cc(F)c(F)c(F)c2)nn1 (stereo not shown) [Example B2]
9 | 54 nM | COC1C(SC2CN(C(C)=O)CC(n3cc(-c4cccc(F)c4)nn3)C2O)OC(CO)C(O)C1n1cc(-c2cccc(F)c2)nn1 [Example B3, 1-((3S,4R,5R)-3-(4-(3-fluorophenyl)-1H-1,2,3-triazol-1-yl)-5-(((2S,3R,4S,5R,6R)-4-(4-(3-fluorophenyl)-1H-1,2,3-triazol-1-yl)-5-hydroxy-6-(hydroxymethyl)-3-methoxytetrahydro-2H-pyran-2-yl)thio)-4-hydroxypipeddin-1-yl)ethan-1-one]
10 | 32 nM | CC(=O)N1C[C@@H](S[C@@H]2O[C@H](CO)[C@H](O)[C@H](n3cc(-c4cc(F)c(F)c(F)c4)nn3)[C@H]2OCC(=O)O)[C@H](O)[C@@H](n2cc(-c3cccc(F)c3)nn2)C1 [Example B4, 2-(((2S,3R,4S,5R,6R)-2-(((3R,4R,5S)-1-acetyl-5-(4-(3-fluorophenyl)-1H-1,2,3-triazol-1-yl)-4-hydroxypiperidin-3-yl)thio)-5-hydroxy-6-(hydroxymethyl)-4-(4-(3,4,5-trifluorophenyl)-1H-1,2,3-triazol-1-yl)tetrahydro-2H-pyran-3-yl)oxy)acetic acid]
